Experimental data published in EP0551518A1, “QUINOLINECARBOXYLIC ACID DERIVATIVE” (NIPPON SHINYAKU COMPANY, LIMITED, priority 1990, dated 1992).
Converted amounts (≈) assume the structure as drawn.

Key:
Type in all cases: cell-based
[1] = tested on: Bacillus subtilis ATCC 6633; assay: Determination of minimal inhibitory concentration of growth (MIC)-1, agar plate dilution method; details: ATCC6633; Bacillus subtilis ATCC 6633; agar plate dilution, 10⁶ CFU/ml, 37°C, 18 hours; read-out: MIC
Method in brief: (§1)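 Each strain was first cultured for 18 h at 37°C and diluted to 10⁶ CFU/ml. Drug-containing sensitivity agar was then inoculated by microplanter, incubated another 18 h at 37°C, and the MIC determined.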

[2] = tested on: Enterococcus faecalis ATCC 29212; assay: as above; details: ATCC29212; Enterococcus faecalis ATCC 29212; agar plate dilution, 10⁶ CFU/ml, 37°C, 18 hours; read-out: MIC
Method in brief: as §1

Escherichia coli KC-14 = assay: as above; details: Escherichia coli, KC14, 18 h, 10⁶ CFU/ml, 37°C, read-out: MIC
Method in brief: as §1

[3] = tested on: Micrococcus luteus ATCC 9341; assay: as above; details: ATCC9341; Micrococcus luteus ATCC 9341; agar plate dilution, 10⁶ CFU/ml, 37°C, 18 hours; read-out: MIC
Method in brief: as §1

Proteus vulgaris HX-19 = assay: as above; details: Proteus vulgaris, HX19, 18 h, Proteus vulgaris HX-19; agar plate dilution, 10⁶ CFU/ml, 37°C, 18 hours; read-out: MIC
Method in brief: as §1

[4] = tested on: Pseudomonas aeruginosa IFO 3445; assay: as above; details: Pseudomonas aeruginosa, IFO3445, 18 h, Pseudomonas aeruginosa IFO 3445; agar plate dilution, 10⁶ CFU/ml, 37°C, 18 hours; read-out: MIC
Method in brief: as §1

[5] = tested on: Staphylococcus aureus 209-P JC-1; assay: as above; details: Staphylococcus aureus, 209P, 18 h, Staphylococcus aureus 209-P JC-1; agar plate dilution, 10⁶ CFU/ml, 37°C, 18 hours; read-out: MIC
Method in brief: as §1

[6] = tested on: Staphylococcus aureus OWPH 1984 (MRSA); assay: as above; details: Staphylococcus aureus, MRSA, 18 h, Staphylococcus aureus OWPH 1984 (MRSA); agar plate dilution, 10⁶ CFU/ml, 37°C, 18 hours; read-out: MIC
Method in brief: as §1

[7] = tested on: Staphylococcus aureus OWPH 2125 (MRSA, PCA^r ); assay: as above; details: Staphylococcus aureus, MRSA, 18 h, Staphylococcus aureus OWPH 2125 (MRSA, PCA^r); agar plate dilution, 10⁶ CFU/ml, 37°C, 18 hours; read-out: MIC
Method in brief: as §1

[8] = tested on: Staphylococcus aureus Smith; assay: as above; details: Staphylococcus aureus Smith; agar plate dilution, 10⁶ CFU/ml, 37°C, 18 hours; read-out: MIC
Method in brief: as §1

[9] = tested on: Staphylococcus epider-midis IFO 12993; assay: as above; details: Staphylococcus, IFO12993, 18 h, Staphylococcus epider-midis IFO 12993; agar plate dilution, 10⁶ CFU/ml, 37°C, 18 hours; read-out: MIC
Method in brief: as §1

S. aureus OWPH 1770 = assay: Determination of minimal inhibitory concentration (MIC)-2, new quinolone-resistant MRSA; details: Staphylococcus aureus, OWPH1770, 18 h; S. aureus OWPH 1770, new quinolone-resistant and methicillin-resistant; same procedure as Test Example 1
Method: (§2) Method: MIC was determined by the agar plate dilution method in accordance with the standard protocol of Japan Society of Chemotherapy (cf. Chemotherapy 29 (1), 76-79, 1981). Each bacterial culture obtained by 18-hour incubation in a sensitivity assay bouillon medium at 37°C was diluted to 10⁶ CFU/ml with the same medium. Using a microplanter, a sensitivity assay agar medium containing the test drug was inoculated with the diluted culture and incubated at 37°C for 18 hours. The MIC value was then determined. As reference drugs, 6-fluoro-1-methyl-4-oxo-7-(1-piperazinyl)-4H-[1,3]thiazeto[3,2-a]quinoline-3-carboxylic acid (referred to as control), ciprofloxacin (CPFX) and ofloxacin (OFLX) were used.
(§3) The antibacterial activity of the compounds obtained in Example 4, Example 25 and Example 26 of the present invention was assayed by the same procedure as in Test Example 1. As reference drugs, 6-fluoro-1-methyl-4-oxo-7-(1-piperazinyl)-4H-[1,3]-thiazeto[3,2-a]quinoline-3-carboxylic acid (referred to as Control), norfloxacin (NFLX) and tosufloxacin (TFLX) were used.

S. aureus OWPH 1773 = assay: as above; details: Staphylococcus aureus, OWPH1773, 18 h; S. aureus OWPH 1773, new quinolone-resistant and methicillin-resistant; same procedure as Test Example 1
Method: as §2, §3

S. aureus OWPH 1786 = assay: as above; details: Staphylococcus aureus, OWPH1786, 18 h; S. aureus OWPH 1786, new quinolone-resistant and methicillin-resistant; same procedure as Test Example 1
Method: as §2, §3

S. aureus OWPH 1792 = assay: as above; details: Staphylococcus aureus, OWPH1792, 18 h; S. aureus OWPH 1792, new quinolone-resistant and methicillin-resistant; same procedure as Test Example 1
Method: as §2, §3

S. aureus OWPH 1793 = assay: as above; details: Staphylococcus aureus, OWPH1793, 18 h; S. aureus OWPH 1793, new quinolone-resistant and methicillin-resistant; same procedure as Test Example 1
Method: as §2, §3

S. aureus OWPH 1796 = assay: as above; details: Staphylococcus aureus, OWPH1796, 18 h; S. aureus OWPH 1796, new quinolone-resistant and methicillin-resistant; same procedure as Test Example 1
Method: as §2, §3

S. aureus OWPH 1799 = assay: as above; details: Staphylococcus aureus, OWPH1799, 18 h; S. aureus OWPH 1799, new quinolone-resistant and methicillin-resistant; same procedure as Test Example 1
Method: as §2, §3

S. aureus OWPH 2124 = assay: as above; details: Staphylococcus aureus, OWPH2124, 18 h; S. aureus OWPH 2124, new quinolone-resistant and methicillin-resistant; same procedure as Test Example 1
Method: as §2, §3

S. aureus OWPH 2127 = assay: as above; details: Staphylococcus aureus, OWPH2127, 18 h; S. aureus OWPH 2127, new quinolone-resistant and methicillin-resistant; same procedure as Test Example 1
Method: as §2, §3

S. aureus OWPH 2128 = assay: as above; details: Staphylococcus aureus, OWPH2128, 18 h; S. aureus OWPH 2128, new quinolone-resistant and methicillin-resistant; same procedure as Test Example 1
Method: as §2, §3

S. aureus OWPH 2133 = assay: as above; details: Staphylococcus aureus, OWPH2133, 18 h; S. aureus OWPH 2133, new quinolone-resistant and methicillin-resistant; same procedure as Test Example 1
Method: as §2, §3

S. aureus OWPH 2134 = assay: as above; details: Staphylococcus aureus, OWPH2134, 18 h; S. aureus OWPH 2134, new quinolone-resistant and methicillin-resistant; same procedure as Test Example 1
Method: as §2, §3

S. aureus Sh 2 = assay: as above; details: Staphylococcus aureus, SH2, 18 h; S. aureus Sh 2, new quinolone-resistant and methicillin-resistant; same procedure as Test Example 1
Method: as §2, §3

S. aureus Sh 44 = assay: as above; details: Staphylococcus aureus, SH44, 18 h; S. aureus Sh 44, new quinolone-resistant and methicillin-resistant; same procedure as Test Example 1
Method: as §2, §3

S. aureus Sh 47 = assay: as above; details: Staphylococcus aureus, SH47, 18 h; S. aureus Sh 47, new quinolone-resistant and methicillin-resistant; same procedure as Test Example 1
Method: as §2, §3

S. aureus Sh 54 = assay: as above; details: Staphylococcus aureus, SH54, 18 h; S. aureus Sh 54, new quinolone-resistant and methicillin-resistant; same procedure as Test Example 1
Method: as §2, §3

S. aureus Sh 8 = assay: as above; details: Staphylococcus aureus, SH8, 18 h; S. aureus Sh 8, new quinolone-resistant and methicillin-resistant; same procedure as Test Example 1
Method: as §2, §3

With `COc1c(-c2ccccc2)c(F)cc2c(=O)c(C(=O)O)c3n(c12)C(C)S3` (stereo not shown) [Example 26, 6-Fluoro-8-methoxy-1-methyl-4-oxo-7-phenyl-4H-[1,3]thiazeto[3,2-a]quinoline-3-carboxylic acid] the MIC [1] was ≤ 0.006 µg/mL, the MIC [2] was 0.2 µg/mL (≈ 0.539 µM) and the MIC (Escherichia coli KC-14) was 0.78 µg/mL (≈ 2.1 µM). For the same compound, the MIC [3] was 0.78 µg/mL (≈ 2.1 µM), the MIC (Proteus vulgaris HX-19) was 0.39 µg/mL (≈ 1.05 µM) and the MIC [4] was 3.13 µg/mL (≈ 8.43 µM). The MIC [5] was 0.025 µg/mL (≈ 0.0673 µM), the MIC [6] was 0.025 µg/mL (≈ 0.0673 µM) and the MIC [7] was 0.1 µg/mL (≈ 0.269 µM). It also gave an MIC [8] of 0.012 µg/mL (≈ 0.0323 µM), an MIC [9] of 0.025 µg/mL (≈ 0.0673 µM) and an MIC (S. aureus OWPH 1770) of 0.39 µg/mL (≈ 1.05 µM). For the same compound, the MIC (S. aureus OWPH 1773) was 0.39 µg/mL (≈ 1.05 µM), the MIC (S. aureus OWPH 1786) was 0.78 µg/mL (≈ 2.1 µM) and the MIC (S. aureus OWPH 1792) was 1.56 µg/mL (≈ 4.2 µM). It also gave an MIC (S. aureus OWPH 1793) of 1.56 µg/mL (≈ 4.2 µM), an MIC (S. aureus OWPH 1796) of 0.78 µg/mL (≈ 2.1 µM) and an MIC (S. aureus OWPH 1799) of 1.56 µg/mL (≈ 4.2 µM). It also gave an MIC (S. aureus OWPH 2124) of 0.39 µg/mL (≈ 1.05 µM), an MIC (S. aureus OWPH 2127) of 1.56 µg/mL (≈ 4.2 µM) and an MIC (S. aureus OWPH 2128) of 1.56 µg/mL (≈ 4.2 µM). The MIC (S. aureus OWPH 2133) was 1.56 µg/mL (≈ 4.2 µM), the MIC (S. aureus OWPH 2134) was 0.78 µg/mL (≈ 2.1 µM) and the MIC (S. aureus Sh 2) was 1.56 µg/mL (≈ 4.2 µM). The MIC (S. aureus Sh 44) was 0.78 µg/mL (≈ 2.1 µM), the MIC (S. aureus Sh 47) was 0.78 µg/mL (≈ 2.1 µM) and the MIC (S. aureus Sh 54) was 0.78 µg/mL (≈ 2.1 µM). The MIC (S. aureus Sh 8) was 0.78 µg/mL (≈ 2.1 µM).
